Assay results as given in patent publication US12459951B2, “Compounds that interact with RAS superfamily proteins for treatment of cancers, inflammatory diseases, rasopathies, and fibrotic disease” (SHY Therapeutics, LLC, priority 2022, dated 2025).

Columns and labels:
[1] = test system: TNF-alpha; experiment: TNF-alpha Quantification Assay (ELISA), LPS-stimulated RAW 264.7; format: cell-based; design: inhibition: dose or concentration left out as unconfirmed; settings: Mus musculus, RAW264.7, read-out: TNFα: % inh.
[2] = test system: Akt phosphorylation; experiment: Akt Phosphorylation Assay (western blot), Panc-1; format: cell-based, human; settings: at 10 μM, * = activation
In short: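 Panc-1 (KRas G12D) cells were treated with compound at 10 μM final (0.3% DMSO) for 6 h at 37 °C, or with serial dilutions for IC50. Cells were either serum-starved overnight in 0.5% FBS and then stimulated with 1.5 ng/ml EGF for 15 min, or kept in 10% FBS without stimulation. Akt Ser473 phosphorylation in lysates was read by western blot.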

[3] = test system: KRas wild type; experiment: Ras GTP Binding Domain Inhibition Assay (Ras Superfamily Assay); settings: at 20 μM; for KRas wild type + SOS: % inh.: with SOS; for KRas wild type: % inh.: without SOS
In short: (§1)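 His-tagged GTPases immobilised on nickel-coated plates, pre-incubated with compound (20 μM single point, or serial dilution for IC50) 3 h at room temperature, with or without 10-30 μg/mL Sos (residues 556-1049) in the final hour. Bound Cy3- or Cy5-GTP (100 nM, 45 min) measured by fluorescence after washing.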

[4] = target: T1, Rac-1 (Homo sapiens, UniProt P63000); experiment: as above; settings: read-out: Rac-1: % inh.
T1 construct: made in house
In short: as §1

[5] = test system: KRas G12D mutant; experiment: as above; settings: at 20 μM; for KRas G12D mutant + SOS: % inh.: with SOS; for KRas G12D mutant: % inh.: without SOS
In short: as §1

[6] = test system: IL6; experiment: IL-6 Quantification Assay (ELISA), LPS-stimulated RAW 264.7; format: cell-based; design: inhibition: dose or concentration left out as unconfirmed; settings: Mus musculus, RAW264.7; read-out: IL-6: % inh.

Structure (SMILES) | inhibition at 10 µM [1] | % inh of Akt phosphorylation in Panc-1 [2] | KRas wild type + SOS: % inh. [3] | KRas wild type: % inh. [3] | inhibition at 20 µM [4] | KRas G12D mutant + SOS: % inh. [5] | KRas G12D mutant: % inh. [5] | inhibition [6] | inhibition [1]
Cc1c(-c2ccn(C)n2)cn2nc(-c3nccn3C)nc(Nc3ccc(-c4ccccn4)cn3)c12 [Compound 249, N-([2,3′-Bipyridin]-6′-yl)-5-methyl-2-(1-methyl-1H-imidazol-2-yl)-6-(1-methyl-1H-pyrazol-3-yl)pyrrolo[2,1-f][1,2,4]triazin-4-amine] | 1 to 24% | D* (85-100% activation) | C (C = 50-75% inhibition) | C (C = 50-75% inhibition) | 76 to 100% | C (C = 50-75% inhibition) | C (C = 50-75% inhibition) | 75 to 100% | 
Cc1c(-c2ccn(C)n2)cn2nc(-c3nccn3C)nc(Oc3cc(N)[nH]n3)c12 [Compound 262, 3-((5-Methyl-2-(1-methyl-1H-imidazol-2-yl)-6-(1-methyl-1H-pyrazol-3-yl)pyrrolo[2,1-f][1,2,4]triazin-4-yl)oxy)-1H-pyrazol-5-amine] | 0% | B (26-49% inhibition) | C (C = 50-75% inhibition) | B (B = 26-49% inhibition) | 50 to 75% | D (D = 76-100% inhibition) | D (D = 76-100% inhibition) | 1 to 24% | 
Cc1c(-c2ccn(C)n2)cn2nc(-c3nccn3C)nc(Nc3cc(-c4ccccn4)[nH]n3)c12 [Compound 265, 5-Methyl-2-(1-methyl-1H-imidazol-2-yl)-6-(1-methyl-1H-pyrazol-3-yl)-N-(5-(pyridin-2-yl)-1H-pyrazol-3-yl)pyrrolo[2,1-f][1,2,4]triazin-4-amine] | 25 to 49% | D* (85-100% activation) | D (D = 76-100% inhibition) |  | 76 to 100% | D (D = 76-100% inhibition) | C (C = 50-75% inhibition) | 75 to 100% | 
Cc1c(-c2ccn(C)n2)cn2nc(-c3nccn3C)nc(Nc3cc(C4CCC4)[nH]n3)c12 [Compound 257, N-(5-Cyclobutyl-1H-pyrazol-3-yl)-5-methyl-2-(1-methyl-1H-imidazol-2-yl)-6-(1-methyl-1H-pyrazol-3-yl)pyrrolo[2,1-f][1,2,4]triazin-4-amine] | 25 to 49% | D* (85-100% activation) | D (D = 76-100% inhibition) | C (C = 50-75% inhibition) | 50 to 75% | D (D = 76-100% inhibition) | D (D = 76-100% inhibition) | 75 to 100% | 
Cc1c(-c2ccn(C)n2)cn2nc(-c3nccn3C)nc(Nc3cc(C(F)F)[nH]n3)c12 [Compound 258, N-(5-(Difluoromethyl)-1H-pyrazol-3-yl)-5-methyl-2-(1-methyl-1H-imidazol-2-yl)-6-(1-methyl-1H-pyrazol-3-yl)pyrrolo[2,1-f][1,2,4]triazin-4-amine] | 0% | A (1-25% inhibition) | 0 (0 = 0% inhibition) | A (A = 1-25% inhibition) | 0% | 0 (0 = 0% inhibition) | 0 (0 = 0% inhibition) | 0% | 
COc1cc(Nc2nc(-c3nccn3C)nn3cc(-c4ccn(C)n4)c(C)c23)nn1C [Compound 253, N-(5-Methoxy-1-methyl-1H-pyrazol-3-yl)-5-methyl-2-(1-methyl-1H-imidazol-2-yl)-6-(1-methyl-1H-pyrazol-3-yl)pyrrolo[2,1-f][1,2,4]triazin-4-amine] | 0% | D* (85-100% activation) | D (D = 76-100% inhibition) | D (D = 76-100% inhibition) | 76 to 100% | D (D = 76-100% inhibition) | C (C = 50-75% inhibition) | 25 to 49% | 
Cc1c(-c2ccn(C)n2)cn2nc(-c3nccn3C)nc(Nc3cc(-n4ccnc4)ccn3)c12 [Compound 245, N-(4-(1H-imidazol-1-yl)pyridin-2-yl)-5-methyl-2-(1-methyl-1H-imidazol-2-yl)-6-(1-methyl-1H-pyrazol-3-yl)pyrrolo[2,1-f][1,2,4]triazin-4-amine] | 0% | D* (85-100% activation) | B (B = 26-49% inhibition) | A (A = 1-25% inhibition) | 50 to 75% | C (C = 50-75% inhibition) | C (C = 50-75% inhibition) | 25 to 49% | 
Cc1c(-c2ccn(C)n2)cn2nc(-c3nccn3C)nc(Nc3cc(OC(F)F)n(C)n3)c12 [Compound 254, N-(5-(Difluoromethoxy)-1-methyl-1H-pyrazol-3-yl)-5-methyl-2-(1-methyl-1H-imidazol-2-yl)-6-(1-methyl-1H-pyrazol-3-yl)pyrrolo[2,1-f][1,2,4]triazin-4-amine] | 0% | D* (85-100% activation) | D (D = 76-100% inhibition) | D (D = 76-100% inhibition) | 76 to 100% | D (D = 76-100% inhibition) | D (D = 76-100% inhibition) | 25 to 49% | 
Cc1c(-c2ccn(C)n2)cn2nc(-c3nccn3C)nc(Nc3cc(-c4ccccn4)ccn3)c12 [Compound 248, N-([2,4′-Bipyridin]-2′-yl)-5-methyl-2-(1-methyl-1H-imidazol-2-yl)-6-(1-methyl-1H-pyrazol-3-yl)pyrrolo[2,1-f][1,2,4]triazin-4-amine] |  | D* (85-100% activation) | D (D = 76-100% inhibition) | D (D = 76-100% inhibition) | 76 to 100% | D (D = 76-100% inhibition) | D (D = 76-100% inhibition) | 75 to 100% | 25 to 49%
Cc1c(-c2ccn(C)n2)cn2nc(-c3nccn3C)nc(N3CCc4cc(C(F)(F)F)cnc43)c12 [Compound 251, 5-Methyl-2-(1-methyl-1H-imidazol-2-yl)-6-(1-methyl-1H-pyrazol-3-yl)-4-(5-(trifluoromethyl)-2,3-dihydro-1H-pyrrolo[2,3-b]pyridin-1-yl)pyrrolo[2,1-f][1,2,4]triazine] |  | A (1-25% inhibition) | A (A = 1-25% inhibition) | B (B = 26-49% inhibition) | 26 to 49% | B (B = 26-49% inhibition) | C (C = 50-75% inhibition) |  | 
